Counter-ions that a name gives are not always drawn.

From patent publication US7291641B2, “Derivatives of heterocycles with 5 members, their preparation and their use as medicaments” (Societe de Conseils de Recherches et d'Applications …, priority 1999, dated 2007) come the findings set out here.

On to `N[C@H](CC1CCCCC1)c1nc(-c2ccccc2)c[nH]1` (as salt: hydrochloride) [Example 132, (1R)-2-cyclohexyl-1-(4-phenyl-1H-imidazol-2-yl)ethanamine], for which the melting point (in general, the temperature, or range, at which the solid turns liquid) is 196 to 198 °C.

Turning to `O=C(NCCc1nc(-c2ccc(-c3ccccc3)cc2)c[nH]1)OCC1CCCCC1` [Example 280, cyclohexylmethyl 2-(4-[1,1′-biphenyl]-4-yl-1H-imidazol-2-yl)ethylcarbamate], the melting point was in the range of 132 to 134 °C. `Fc1ccc(-c2c[nH]c([C@@H](Cc3ccccc3)NC3CCCCC3)n2)cc1` (as salt: hydrochloride) [Example 327, N-{(1R)-1-[4-(4-fluorophenyl)-1H-imidazol-2-yl]-2-phenylethyl}cyclohexanamine] had a melting point of 210 to 213 °C. With `N[C@H](c1nc(-c2cccc(F)c2)c[nH]1)C1CCCCC1` (as salt: hydrochloride) [Example 311, (S)-1-cyclohexyl-1-[4-(3-fluorophenyl)-1H-imidazol-2-yl]methanamine] the figure was 238 to 241 °C. With `CCCCCCC(NCc1ccccc1)c1nc(-c2ccc(Cl)c(Cl)c2)c[nH]1` (racemic) [Example 77, (R,S)-N-benzyl-1-[4-(3,4-dichlorophenyl)-1H-imidazol-2-yl]-1-heptanamine] the figure was 192 to 194 °C; with `c1ccc(CNCCc2nc(-c3ccc(-c4ccccc4)cc3)c[nH]2)cc1` [Example 164, N-benzyl-2-(4-[1,1′-biphenyl]-4-yl-1H-imidazol-2-yl)ethanamine], 174 to 176 °C. `CCCCOC(=O)NCCc1nc(-c2ccc(-c3cccc([N+](=O)[O-])c3)cc2)c[nH]1` [Example 459, butyl 2-[4-(3′-nitro-1,1′-biphenyl-4-yl)-1H-imidazol-2-yl]ethylcarbamate] registered a melting point of 100.5 to 101.5 °C. Turning to `CCCCOC(=O)NCCc1nc(-c2ccc(-c3ccc(Cl)cc3)cc2)c[nH]1` [Example 395, butyl 2-[4-(4′-chloro-1,1′-biphenyl-4-yl)-1H-imidazol-2-yl]ethylcarbamate], the melting point was 164.2 °C. With `CCCCOC(=O)NCCc1nc(-c2cc(C(C)(C)C)c(O)c(C(C)(C)C)c2)c[nH]1` [Example 330, butyl 2-[4-(3,5-ditert-butyl-4-hydroxyphenyl)-1H-imidazol-2-yl]ethylcarbamate] the figure was 180.9 °C. On to `CCCCCCC(NCCCCC)c1nc(-c2ccccc2)c[nH]1` (racemic) [Example 75, (R,S)-N-pentyl-1-(4-phenyl-1H-imidazol-2-yl)-1-heptanamine], for which the melting point was in the range of 118 to 120 °C.

On to `N[C@H](CCc1ccccc1)c1nc(-c2ccccc2)c[nH]1` (as salt: hydrochloride) [Example 131, (1R)-3-phenyl-1-(4-phenyl-1H-imidazol-2-yl)-1-propanamine], for which the melting point fell in the range of 174 to 176 °C. For `FC(F)(F)c1cccc(-c2c[nH]c([C@@H](NC3CCCCC3)C3CCCCC3)n2)c1` [Example 304, N-((S)-cyclohexyl{4-[3-(trifluoromethyl)phenyl]-1H-imidazol-2-yl}methyl)cyclohexanamine], the melting point was 186 to 188 °C.

The compound `CCC[C@@H](NC(=O)OC(C)(C)C)c1nc(-c2ccc(-c3ccccc3)cc2)c[nH]1` [Example 208, 4-(2-{(1R)-1-[(tert-butoxycarbonyl)amino]butyl}-1H-imidazol-4-yl)-1,1′-biphenyl] came in with a melting point of 145.6 °C. With `CCCCOC(=O)NCCc1nc(-c2ccc(-c3cc(F)cc(F)c3)cc2)c[nH]1` [Example 457, butyl 2-[4-(3′,5′-difluoro-1,1′-biphenyl-4-yl)-1H-imidazol-2-yl]ethylcarbamate] the figure was 111.1 °C; with `CC(C)(NC(=O)OCc1ccccc1)c1nc(-c2ccc(-c3ccccc3)cc2)c[nH]1` [Example 247, 4-[2-(1-{[(benzyloxy)carbonyl]amino}-1-methylethyl)-1H-imidazol-4-yl]-1,1′-biphenyl], 148 to 152 °C; with `c1ccc(-c2c[nH]c([C@@H](NCC3CCCCC3)C3CCCCC3)n2)cc1` (as salt: hydrochloride) [Example 265, (S)-cyclohexyl-N-(cyclohexylmethyl)(4-phenyl-1H-imidazol-2-yl)methanamine], 180 to 182 °C. In turn, `Cn1cc(-c2ccccc2)nc1[C@H](N)Cc1c[nH]c2ccccc12` (as salt: hydrochloride) [Example 151, (1R)-2-(1H-indol-3-yl)-1-(1-methyl-4-phenyl-1H-imidazol-2-yl)ethanamine] yielded a melting point of 206 to 210 °C. `CC(C)(NCc1ccccc1)c1nc(-c2ccccc2)c[nH]1` [Example 139, N-benzyl-2-(4-phenyl-1H-imidazol-2-yl)-2-propanamine] registered a melting point of 136 to 138 °C. With `CCCCOC(=O)NCCc1nc(-c2ccc(C3CCCCC3)cc2)c[nH]1` [Example 268, butyl 2-[4-(4-cyclohexylphenyl)-1H-imidazol-2-yl]ethylcarbamate] the figure was 138.4 °C; with `c1ccc(CC[C@@H](NCc2ccccc2)c2nc(-c3ccccc3)c[nH]2)cc1` [Example 135, (1R)-N-benzyl-3-phenyl-1-(4-phenyl-1H-imidazol-2-yl)-1-propanamine], 142 to 144 °C. With `CN(Cc1ccccc1)Cc1nc(-c2cc(C(C)(C)C)c(O)c(C(C)(C)C)c2)cs1` [Example 7, 4-(2-{[benzyl(methyl)amino]methyl}-1,3-thiazol-4-yl)-2,6-di(tert-butyl)phenol] the figure was 165 to 170 °C; with `CC[C@H](N)c1nc(-c2ccccc2)c(-c2ccccc2)[nH]1` (as salt: hydrochloride) [Example 199, (1S)-1-(4,5-diphenyl-1H-imidazol-2-yl)-1-propanamine], 224 to 226 °C; with `CC(C)(C)c1cc(-c2c[nH]c([C@@H](NCC3CCCCC3)C3CCCCC3)n2)cc(C(C)(C)C)c1O` (as salt: hydrochloride) [Example 291, 2,6-ditert-butyl-4-(2-{(S)-cyclohexyl[(cyclohexylmethyl)amino]-methyl}-1H-imidazol-4-yl)phenol], 254.6 °C. In turn, `CC(C)(C)c1cn(Cc2ccccc2)c([C@@H](Cc2c[nH]c3ccccc23)NCc2ccccc2)n1` [Example 39, (1R)-N-benzyl-1-(1-benzyl-4-tert-butyl-1H-imidazol-2-yl)-2-(1H-indol-3-yl)ethanamine] came in with a melting point of 60 to 62 °C. In the case of `CCCCOC(=O)NCCc1nc(-c2ccc(Br)cc2)c[nH]1` [Example 299, butyl 2-[4-(4-bromophenyl)-1H-imidazol-2-yl]ethylcarbamate], the melting point was in the range of 99 to 100 °C. Regarding `CCCCCCOC(=O)NCCc1nc(-c2ccc(-c3ccc(Br)cc3)cc2)c[nH]1` [Example 381, hexyl 2-[4-(4′-bromo-1,1′-biphenyl-4-yl)-1H-imidazol-2-yl]ethylcarbamate], the melting point fell in the range of 138 to 140 °C. Compound `c1ccc(CN[C@H](Cc2ccccc2)c2nc(-c3ccccc3)c[nH]2)cc1` [Example 48, (1R)-N-benzyl-2-phenyl-1-(4-phenyl-1H-imidazol-2-yl)ethanamine] displayed a melting point of 228 to 230 °C.
